From US20240109868A1, “EP300/CBP MODULATOR, PREPARATION METHOD THEREFOR AND USE THEREOF” (Miracure Biotechnology Limited, priority 2022, published 2024)

Experiments:
22Rv1 Cell = experiment: 22RV1 cell growth inhibition, CellTiter-Glo, 72 h; type: cell-based; conditions: Homo sapiens, 22Rv1, 72 h, 22RV1 cells, 72 h culture
Procedure: (§1) 22RV1 or vCap cells were cultured in RPMI-1640 medium (10% fetal bovine serum and 100 units (per mL) of penicillin/streptomycin dual antibody were added to RPMI-1640) in a 37° C., 5% CO2 cell incubator. Cells at the logarithmic growth phase were inoculated onto a 96-well cell culture plate at 5×10^3 cells/100 μL/well and cultured overnight. Solutions of different concentrations of an active compound in DMSO were added, with the final concentration being 0.5% DMSO. The positive control was 1% TweeN2O, and the negative control was 0.5% DMSO. After 72 h of culture, an equal volume of CellTiter-Glo was added to each well, and the mixtures were mixed homogeneously by shaking for 2 min. The plate was let stand at room temperature for 10 min, and fluorescence signal values were read using a microplate reader. Data were analyzed using Prism 7.0 and graphs were generated. The values are shown as mean f SEM (N=2). […] The X-axis represents compound concentration (μM), and the Y-axis represents % inhibition.

vCap Cell = experiment: vCap cell growth inhibition, CellTiter-Glo, 72 h; type: cell-based; conditions: Homo sapiens, VCaP, 72 h, vCap cells, 72 h culture
Procedure: as §1

| SMILES | IC50 (22Rv1 Cell) | IC50 (vCap Cell) |
| --- | --- | --- |
| CC(=O)N1Cc2cc(C3CCC([S@](C)(=N)=O)CC3)cc(N3CCCc4cc(-c5cnn(C)c5)c(C(F)F)cc43)c2C1 (stereo in doubt) [Compound M001330] | > 1000 nM | > 1000 nM |
| CC(=O)N1Cc2cc(N3CCNCC3)cc(N3CCCc4cc(-c5cnn(C)c5)c(C(F)F)cc43)c2C1 [Compound M001002] | > 1000 nM | > 1000 nM |
| CC(=O)N1Cc2cc(N3CCN(C)CC3)cc(N3CCCc4cc(-c5cnn(C)c5)c(C(F)F)cc43)c2C1 [Compound M001003] | > 1000 nM | > 1000 nM |
| CNC(=O)N1CCc2cc(N3CCOCC3)cc(N3CCCc4cc(-c5cnn(C)c5)c(C(F)F)cc43)c2C1 [Compound M001014, 8-(7-(difluoromethyl)-6-(1-methyl-1H-pyrazol-4-yl)-3,4-dihydroquinolin-1(2H)-yl)-N-methyl-6-morpholine-3,4-dihydroisoquinoline-2(1H)-carboxamide] | > 1000 nM | > 1000 nM |
| CNC(=O)N1CCc2cc(CN3CCCC(C(=O)O)C3)cc(N3CCCc4cc(-c5cnn(C)c5)c(C(F)F)cc43)c2C1 (stereo not drawn) [Compound M001015] | > 1000 nM | > 1000 nM |
| CNC(=O)N1CCc2cc(CN3CCC(C(=O)O)CC3)cc(N3CCCc4cc(-c5cnn(C)c5)c(C(F)F)cc43)c2C1 [Compound M001016] | > 1000 nM | > 1000 nM |
| CNC(=O)N1CCc2cc(C3CCN(C)CC3)cc(N3CCCc4cc(-c5cnn(C)c5)c(C(F)F)cc43)c2C1 [Compound M001018] | > 1000 nM | > 1000 nM |
| CN1CCN(c2cc3c(c(N4CCCc5cc(-c6cnn(C)c6)c(C(F)F)cc54)c2)CN(C)C(=O)C3)CC1 [Compound M001024] | > 1000 nM | > 1000 nM |
| CC(=O)N1Cc2cc(C3CC4CCC(C3)N4C)cc(N3CCCc4cc(-c5cnn(C)c5)c(C(F)F)cc43)c2C1 (stereo not drawn) [Compound M001032] | > 1000 nM | > 1000 nM |
| CNC(=O)N1CCc2cc(C3CC4CCC(C3)N4C)cc(N3CCCc4cc(-c5cnn(C)c5)c(C(F)F)cc43)c2C1 (stereo not drawn) [Compound M001035] | > 1000 nM | > 1000 nM |
| CC(=O)N1Cc2cc(C3CCN(C)CC3)cc(N3CCCc4cc(-c5cnn(C)c5)c(C(F)F)cc43)c2C1 [Compound M001041] | > 1000 nM | > 1000 nM |
| CNC(=O)N1Cc2cc(C3CCNCC3)cc(N3CCCc4cc(-c5cnn(C)c5)c(C(F)F)cc43)c2C1 [Compound M001042] | > 1000 nM | > 1000 nM |
| CNC(=O)N1Cc2cc(C3CCN(C)CC3)cc(N3CCCc4cc(-c5cnn(C)c5)c(C(F)F)cc43)c2C1 [Compound M001043] | > 1000 nM | > 1000 nM |
| CNC(=O)N1CCc2cc(N3CCNCC3)cc(N3CCCc4cc(-c5cnn(C)c5)c(C(F)F)cc43)c2C1 [Compound M001044] | > 1000 nM | > 1000 nM |
| CC(=O)N1Cc2cc(C3CCNC3)cc(N3CCCc4cc(-c5cnn(C)c5)c(C(F)F)cc43)c2C1 (stereo not drawn) [Compound M001046] | > 1000 nM | > 1000 nM |
| CC(=O)N1Cc2cc(C3CC4CCC(C3)N4)cc(N3CCCc4cc(-c5cnn(C)c5)c(C(F)F)cc43)c2C1 (stereo not drawn) [Compound M001052] | > 1000 nM | > 1000 nM |
| CC(=O)N1Cc2cc(C3CCN(C(C)=O)C3)cc(N3CCCc4cc(-c5cnn(C)c5)c(C(F)F)cc43)c2C1 (stereo not drawn) [Compound M001053] | > 1000 nM | < 1000 nM |
| CNC(=O)N1CCc2cc(C3CCN(C(C)=O)C3)cc(N3CCCc4cc(-c5cnn(C)c5)c(C(F)F)cc43)c2C1 (stereo not drawn) [Compound M001054] | > 1000 nM | > 1000 nM |
| CNC(=O)N1CCc2cc(C3CCN(C4CCC(=O)NC4=O)C(=O)C3)cc(N3CCCc4cc(-c5cnn(C)c5)c(C(F)F)cc43)c2C1 (stereo not drawn) [Compound M001287] | > 1000 nM | – |
| CNC(=O)N1CCc2cc(-c3ccn(C4CCC(=O)NC4=O)c(=O)c3)cc(N3CCCc4cc(-c5cnn(C)c5)c(C(F)F)cc43)c2C1 (stereo not drawn) [Compound M001300, 8-(7-(difluoromethyl)-6-(1-methyl-1H-pyrazol-4-yl)-3,4-dihydroquinolin-1(2H)-yl)-6-(1-(2,6-dioxopiperidin-3-yl)-2-oxo-1,2-dihydropyridin-4-yl)-N-methyl-3,4-dihydroisoquinoline-2(1H)-carboxamide] | > 1000 nM | – |
| CNC1CCC(c2cc3c(c(N4CCCc5cc(-c6cnn(C)c6)c(C(F)F)cc54)c2)CN(C(C)=O)C3)CC1 (stereo not drawn) [Compound M001302] | > 1000 nM | – |
| CC(=O)N1Cc2cc([C@H]3CC[C@@H](N(C)C)CC3)cc(N3CCCc4cc(-c5cnn(C)c5)c(C(F)F)cc43)c2C1 [Compound M001303] | > 1000 nM | – |
| CC(=O)N1Cc2cc([C@H]3CC[C@H](N(C)C)CC3)cc(N3CCCc4cc(-c5cnn(C)c5)c(C(F)F)cc43)c2C1 [Compound M001312] | > 1000 nM | – |
| CNC(=O)N1CCc2cc(C3CCC(NS(C)(=O)=O)CC3)cc(N3CCCc4cc(-c5cnn(C)c5)c(C(F)F)cc43)c2C1 (stereo not drawn) [Compound M001314] | > 1000 nM | – |
| CNC(=O)N1CCc2cc([C@H]3CC[C@@H](NC(C)=O)CC3)cc(N3CCCc4cc(-c5cnn(C)c5)c(C(F)F)cc43)c2C1 [Compound M001316] | > 1000 nM | – |
| CNC(=O)N1CCc2cc([C@H]3CC[C@H](NC(C)=O)CC3)cc(N3CCCc4cc(-c5cnn(C)c5)c(C(F)F)cc43)c2C1 [Compound M001317] | > 1000 nM | – |
| CNC(=O)N1CCc2cc([C@H]3CC[C@H](N)CC3)cc(N3CCCc4cc(-c5cnn(C)c5)c(C(F)F)cc43)c2C1 [Compound M001319] | > 1000 nM | – |

Continued, values first:

| IC50 (22Rv1 Cell) | IC50 (vCap Cell) | SMILES |
| --- | --- | --- |
| > 1000 nM | > 1000 nM | CC(=O)N1Cc2cc(N3CCOCC3)cc(N3CCCc4cc(-c5cnn(C)c5)c(C(F)F)cc43)c2C1 [Compound M001001] |
| > 1000 nM | > 1000 nM | CC(=O)N1Cc2cc(N3CCSCC3)cc(N3CCCc4cc(-c5cnn(C)c5)c(C(F)F)cc43)c2C1 [Compound M001004] |
| > 1000 nM | > 1000 nM | CNC(=O)N1CCc2cc(C3CCNCC3)cc(N3CCCc4cc(-c5cnn(C)c5)c(C(F)F)cc43)c2C1 [Compound M001017] |
| > 1000 nM | > 1000 nM | CNC(=O)N1CCc2cc(N3CCSCC3)cc(N3CCCc4cc(-c5cnn(C)c5)c(C(F)F)cc43)c2C1 [Compound M001019] |
| > 1000 nM | > 1000 nM | CNC(=O)N1CCc2cc(N3CCS(=O)(=O)CC3)cc(N3CCCc4cc(-c5cnn(C)c5)c(C(F)F)cc43)c2C1 [Compound M001021] |
| > 1000 nM | > 1000 nM | CN1Cc2c(cc(C3CCNCC3)cc2N2CCCc3cc(-c4cnn(C)c4)c(C(F)F)cc32)CC1=O [Compound M001027] |
| > 1000 nM | > 1000 nM | CN1CCC(c2cc3c(c(N4CCCc5cc(-c6cnn(C)c6)c(C(F)F)cc54)c2)CN(C)C(=O)C3)CC1 [Compound M001028, 8-[7-(difluoromethyl)-6-(1-methylpyrazol-4-yl)-3,4-dihydro-2H-quinolin-1-yl]-2-methyl-6-(1-methyl-4-piperidyl)-1,4-dihydroisoquinolin-3-one] |
| > 1000 nM | > 1000 nM | CC(=O)N1Cc2cc(C3CCN(C[C@H](C)O)CC3)cc(N3CCCc4cc(-c5cnn(C)c5)c(C(F)F)cc43)c2C1 [Compound M001030] |
| > 1000 nM | > 1000 nM | CC(=O)N1Cc2cc(C3CCNCC3)cc(N3CCCc4cc(-c5cnn(C)c5)c(C(F)F)cc43)c2C1 [Compound M001040] |
| > 1000 nM | > 1000 nM | CNC(=O)N1CCc2cc(N3CCN(C)CC3)cc(N3CCCc4cc(-c5cnn(C)c5)c(C(F)F)cc43)c2C1 [Compound M001045] |
| > 1000 nM | > 1000 nM | CC(=O)N1Cc2cc(C3CCN(C)C3)cc(N3CCCc4cc(-c5cnn(C)c5)c(C(F)F)cc43)c2C1 (stereo not drawn) [Compound M001047] |
| > 1000 nM | > 1000 nM | CC(=O)N1Cc2cc(C3CCCNC3)cc(N3CCCc4cc(-c5cnn(C)c5)c(C(F)F)cc43)c2C1 (stereo not drawn) [Compound M001048] |
| > 1000 nM | > 1000 nM | CC(=O)N1Cc2cc(C3CCCN(C)C3)cc(N3CCCc4cc(-c5cnn(C)c5)c(C(F)F)cc43)c2C1 (stereo not drawn) [Compound M001049] |
| > 1000 nM | > 1000 nM | CNC(=O)N1CCc2cc(C3CCNC3)cc(N3CCCc4cc(-c5cnn(C)c5)c(C(F)F)cc43)c2C1 (stereo not drawn) [Compound M001050] |
| > 1000 nM | > 1000 nM | CNC(=O)N1CCc2cc(C3CCN(C)C3)cc(N3CCCc4cc(-c5cnn(C)c5)c(C(F)F)cc43)c2C1 (stereo not drawn) [Compound M001051] |
| < 1000 nM | – | CC(=O)N1Cc2cc([C@H]3CC[C@@H](NS(C)(=O)=O)CC3)cc(N3CCCc4cc(-c5cnn(C)c5)c(C(F)F)cc43)c2C1 [Compound M001305] |
| > 1000 nM | – | CNC(=O)N1CCc2cc(C3CCN(S(C)(=O)=O)CC3)cc(N3CCCc4cc(-c5cnn(C)c5)c(C(F)F)cc43)c2C1 [Compound M001306] |
| < 1000 nM | – | CC(=O)N[C@H]1CC[C@@H](c2cc3c(c(N4CCCc5cc(-c6cnn(C)c6)c(C(F)F)cc54)c2)CN(C(C)=O)C3)CC1 [Compound M001308] |
| < 1000 nM | – | CC(=O)N1Cc2cc([C@H]3CC[C@H](NS(C)(=O)=O)CC3)cc(N3CCCc4cc(-c5cnn(C)c5)c(C(F)F)cc43)c2C1 [Compound M001309] |
| > 1000 nM | – | CN[C@H]1CC[C@H](c2cc3c(c(N4CCCc5cc(-c6cnn(C)c6)c(C(F)F)cc54)c2)CN(C(C)=O)C3)CC1 [Compound M001311] |
| > 1000 nM | – | CNC(=O)N1CCc2cc([C@H]3CC[C@@H](N)CC3)cc(N3CCCc4cc(-c5cnn(C)c5)c(C(F)F)cc43)c2C1 [Compound M001318] |
